Experimental data published in patent US11857618B2 (priority 2020, dated 2024).

System: phosphorylation of IRF3 in HeLa cells
Assay type: cell-based

Compound: Nc1nc(=O)c2ncn([C@@H]3O[C@@H]4COP(=O)(O)O[C@H]5[C@@H](O)[C@H](n6cnc7c(N)ncnc76)O[C@@H]5COP(=O)(O)O[C@@H]3[C@@H]4O)c2[nH]1 [cGAMP, 2′,3′-cGAMP (cyclic [G(2′,5′)pA(3′,5′)p])]
- pIRF3 levels (band normalized to actin) as compared to untreated control: up to 3 fold
